Consider 27 molecules from patent publication US4181802A, “1-(Heterocyclylalkyl)-1,3-dihydro-2-H-benzimidazole-2-ones” (Janssen Pharmaceutica N.V., priority 1978, dated 1980).

Assay type in all cases: cell-based
For experiment [1], the target named is T1, β-adrenergic receptor (β1), guinea-pig right atrium (Cavia porcellus, UniProt H0W3H1).
T1 construct: Spontaneously beating right atria are dissected from guinea-pigs; from tissue; host or cells: guinea-pig right atrium (strip with sinoatrial node)
T1 sequence (H0W3H1 1-470): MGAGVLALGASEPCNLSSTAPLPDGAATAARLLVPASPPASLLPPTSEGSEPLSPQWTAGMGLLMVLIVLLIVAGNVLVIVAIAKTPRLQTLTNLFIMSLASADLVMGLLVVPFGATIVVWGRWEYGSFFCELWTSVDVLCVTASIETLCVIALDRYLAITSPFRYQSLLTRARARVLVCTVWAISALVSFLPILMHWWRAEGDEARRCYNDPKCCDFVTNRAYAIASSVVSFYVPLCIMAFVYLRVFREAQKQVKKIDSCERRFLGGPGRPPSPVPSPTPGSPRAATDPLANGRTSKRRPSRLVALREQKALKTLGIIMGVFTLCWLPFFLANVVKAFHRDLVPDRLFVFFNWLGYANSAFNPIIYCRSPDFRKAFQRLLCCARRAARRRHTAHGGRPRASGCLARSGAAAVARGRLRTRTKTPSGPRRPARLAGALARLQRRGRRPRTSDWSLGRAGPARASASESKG
As to the kind of experiment: Guinea-pig right atrium (β1): inhibition of isoprenaline-induced increase in heart rate. Particulars: isolated guinea-pig right atrium, drug incubation 30 min, 37.5° C. As to the method: 1. GUINEA-PIG RIGHT ATRIUM (β1)
Spontaneously beating right atria are dissected from guinea-pigs (400±50 g). A triangular strip of atrium, including the sinoatrial node is excised together with the anterior vena cava.
The vena is fixed to a glass muscle holder and the opposite atrial muscle is connected to a Grass isometric transducer. Atria are suspended at optimal preload in a 100 ml Krebs-Henseleit solution, containing 2 g/l glucose, at 37.5° C. and aerated with 95% O2 and 5% CO2.
Heart rate and contractile force are recorded by means of a Grass FTO3C isometric transducer. Output signals amplified by an isometric transducer amplifier (J.S.I.) via a cardiotachometer (J.S.I.) are recorded on a Honeywell XYY' recorder. […] This produces a dose related increase in heart rate (a). After washing out isoprenaline a stabilization period of 15 min. is allowed. A drug is then added to the bath fluid for 30 min. During this incubation period possible direct chronotropic and inotropic effects of the drug are determined. Following this, a second dose-response curve for isoprenaline is produced by infusion during 10 minutes (b). The slope of the increase in rate is graphically estimated for each period of isoprenaline addition and the ratio b/a is calculated. Based on solvent experiments a ratio of less than 0.70 is considered as the criterion of inhibitory activity. ED50 -values are estimated graphically.

The test system of experiment [2] is β-adrenergic receptor (β2), guinea-pig tracheal ring. As to the kind of experiment: Guinea-pig tracheal ring (β2): inhibition of isoprenaline-induced relaxation. Particulars: ratio of ED50 tracheal ring / ED50 right atrium; for β2/β1 (ratio of the ED50 values, tracheal ring to right atrium; index of cardioselectivity): Table I. From the text: (§1) 2. GUINEA-PIG TRACHEAL RING (β2)
(§2) The trachea is dissected from guinea-pigs (400±50 g). Four rings, approximately 8 mm in width, are then cut from each trachea. Cartilaginous parts of the tracheal ring are mounted horizontally between two metal rods, one of which is attached to a glass organholder, the other rod being connected to a Grass isometric transducer. Using such a technique the tracheal smooth muscle is suspended optimally i.e. midway between the cartilaginous parts. the prepared rings are suspended in a 100 ml organ chamber filled with Tyrode solution, maintained at 35° C. and aerated with 95% O2 and 5% CO2. The preparation is maintained at tension of 1.5 g throughout the experiment. Tension changes recorded are thus an expression of contraction or relaxation. After a stabilization period of 30 min contraction is induced by adding methacholine (1 μg/ml) to the bath for a 10 min period. Addition of isoprenaline (0.08 μg/ml) for 4 min. in the presence of methacholine induces a relaxation of the tracheal ring. This procedure is repeated twice before adding the drug (t-33'; t-19') and once 30 min after addition of the drug. During the incubation period any direct effects of the drug are measured. A 50% inhibition of the agonist-induced response is used as the criterion of effectiveness and ED50 values (with fiducial limits) are determined by probit analysis.
(§3) The ratio of the ED50 -values obtained in respectively the tracheal ring test (β2) and in the right atrium test (β1) may be considered as an index of the cardioselectivity of the test drug.

Experiment [3] has as its target T2, β-adrenergic receptor (β2), guinea-pig tracheal ring (Cavia porcellus, UniProt Q8K4Z4).
T2 construct: The trachea is dissected from guinea-pigs; from tissue; host or cells: guinea-pig tracheal smooth muscle (rings)
Described as above. As to conditions: guinea-pig tracheal ring, methacholine 1 μg/ml, isoprenaline 0.08 μg/ml, 35° C., read-out: β2 = ED50 tracheal ring (converted).
Source text: as §1, §2, §3

Where [4] appears, read: Table I, ED50 estimated graphically.
[5] abbreviates: Table I, 30 min after drug, probit analysis.

Structures are written as SMILES. Like-named read-outs stand apart in the source and are kept apart here.

T2 sequence (Q8K4Z4 whole entry): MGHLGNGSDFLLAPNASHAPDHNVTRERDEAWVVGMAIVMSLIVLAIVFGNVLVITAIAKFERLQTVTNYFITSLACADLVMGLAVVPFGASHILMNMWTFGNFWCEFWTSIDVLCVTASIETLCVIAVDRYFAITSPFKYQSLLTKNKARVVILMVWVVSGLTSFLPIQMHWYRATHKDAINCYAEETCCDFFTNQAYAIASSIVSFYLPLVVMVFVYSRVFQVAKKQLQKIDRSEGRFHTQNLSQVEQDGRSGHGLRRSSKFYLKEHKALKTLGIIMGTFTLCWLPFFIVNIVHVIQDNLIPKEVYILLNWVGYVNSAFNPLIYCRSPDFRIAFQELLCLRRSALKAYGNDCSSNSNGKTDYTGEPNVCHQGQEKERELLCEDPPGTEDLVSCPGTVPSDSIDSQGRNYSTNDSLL

In the case of `O=c1[nH]c2ccc(Cl)cc2n1CC1CCCN(CC(O)COc2cccc3ccccc23)C1` (stereo not drawn) [1-naphthalenyl, 6-Cl], the values for the IC50 in experiment [1] (setting [4]) and in experiment [3] (setting [5]) were 10.7 nM and 343 nM, respectively. Further, the “β2/β1 (ratio of the ED50 values, tracheal ring to right atrium; index of cardioselectivity)” value in experiment [2] came out at 32.
The corresponding values for `O=c1[nH]c2ccccc2n1CC1CCCN(CC(O)COc2cccc3ccccc23)C1` (stereo not drawn) [1-naphthalenyl, H] are 23.2 nM, 2900 nM and 125.
Turning to `O=c1[nH]c2ccccc2n1CC1CCCN(CC(O)C2COc3ccccc3O2)C1` (stereo not drawn) [1-{1-[2-(2,3-dihydro-1,4-benzodioxin-2-yl)-2-hydroxyethyl]-3-piperidinylmethyl}-1,3-dihydro-2H-benzimidazol-2-one], the IC50 in experiment [1] (Table II, read-out: β1 = ED50 right atrium (converted)) is 12.2 nM; in experiment [3] (Table II) it was 48.8 nM. Moreover, in experiment [2] (Table II), the “β2/β1 (ratio of the ED50 values; index of cardioselectivity)” value was determined as 4.
With `Cc1cccc(OCC(O)CN2CCCC(Cn3c(=O)[nH]c4ccccc43)C2)c1C` (stereo not drawn) [2,3-(CH3)2C6 H3, H], the IC50 in experiment [1] (setting [4]) was 6.1 nM; in experiment [3] (setting [5]), 48.8 nM. The “β2/β1 (ratio of the ED50 values, tracheal ring to right atrium; index of cardioselectivity)” value in experiment [2] came to 8.
For `CCOc1ccccc1OCC(O)CN1CCCC(Cn2c(=O)[nH]c3ccc(Cl)cc32)C1` (stereo not drawn) [2-(C2 H5 O)C6 H4,6-Cl] the same measures were 21.7 nM, 391 nM and 18.
In the case of `CCOc1ccccc1OCC(O)CN1CCCC(Cn2c(=O)[nH]c3ccccc32)C1` (stereo not drawn) [2-(C2 H5 O)C6 H4, H], the figures for the IC50 in experiment [1] (setting [4]) and in experiment [3] (setting [5]) were 5.88 nM and 23.5 nM, respectively. For the same molecule, the “β2/β1 (ratio of the ED50 values, tracheal ring to right atrium; index of cardioselectivity)” value in experiment [2] stood at 4.
The corresponding values for `CCc1ccccc1OCC(O)CN1CCCC(Cn2c(=O)[nH]c3ccccc32)C1` (stereo not drawn) [2-(C2 H5)C6 H4, H] are 6.1 nM, 48.8 nM and 8.
The corresponding values for `C=CCOc1ccccc1OCC(O)CN1CCCC(Cn2c(=O)[nH]c3ccccc32)C1` (stereo not drawn) [2-(CH2CHCH2 O)C6 H4, H] are 2.86 nM, 45.7 nM and 16.
As to `C=CCc1ccccc1OCC(O)CN1CCCC(Cn2c(=O)[nH]c3ccccc32)C1` (stereo not drawn) [2-(CH2CHCH2)C6 H4, H], the values for the IC50 in experiment [1] (setting [4]) and in experiment [3] (setting [5]) were 5.93 nM and 85.4 nM, respectively. Further, the “β2/β1 (ratio of the ED50 values, tracheal ring to right atrium; index of cardioselectivity)” value in experiment [2] came to 14.
For `CC(=O)c1ccccc1OCC(O)CN1CCCC(Cn2c(=O)[nH]c3ccccc32)C1` (stereo not drawn) [2-(CH3 CO)C6 H4, H] the same measures were 2.95 nM, 2.95 nM and 1.
For `COc1ccccc1OCC(O)CN1CCCC(Cn2c(=O)[nH]c3ccc(Cl)cc32)C1` (stereo not drawn) [2-(CH3 O)C6 H4,6-Cl, 6-chloro-1,3-dihydro-1-{1-[2-hydroxy-3-(2-methoxyphenoxy)propyl]-3-piperidinylmethyl}-2H-benzimidazol-2-one] the same measures were 1.41 nM, 89.7 nM and 63.
The corresponding values for `COc1ccccc1OCC(O)CN1CCCC(Cn2c(=O)[nH]c3ccccc32)C1` (stereo not drawn) [2-(CH3 O)C6 H4, H, 1,3-dihydro-1-{1-[2-hydroxy-3-(2-methoxyphenoxy)propyl]-3-piperidinylmethyl}-2H-benzimidazol-2-one] are 2.43 nM, 12.2 nM and 5.
For `CC(C)Oc1ccccc1OCC(O)CN1CCCC(Cn2c(=O)[nH]c3ccccc32)C1` (stereo not drawn) [2-(iC3 H7 O)C6 H4, H], the IC50 in experiment [1] (setting [4]) is 11.4 nM; in experiment [3] (setting [5]), 91 nM. Moreover, the “β2/β1 (ratio of the ED50 values, tracheal ring to right atrium; index of cardioselectivity)” value in experiment [2] stood at 8.
For `CCCOc1ccccc1OCC(O)CN1CCCC(Cn2c(=O)[nH]c3ccccc32)C1` (stereo not drawn) [2-(nC3 H7 O)C6 H4, H] the same measures were 5.69 nM, 22.8 nM and 4.
For `O=c1[nH]c2ccccc2n1CC1CCCN(CC(O)COc2ccccc2Br)C1` (stereo not drawn) [2-BrC6 H4, H] the same measures were 5.43 nM, 119 nM and 22.
The corresponding values for `N#Cc1ccccc1OCC(O)CN1CCCC(Cn2c(=O)[nH]c3ccc(Cl)cc32)C1` (stereo not drawn) [2-CNC6 H4,6-Cl] are 11.3 nM, 181 nM and 16.
As for `N#Cc1ccccc1OCC(O)CN1CCCC(Cn2c(=O)[nH]c3ccccc32)C1` (stereo not drawn) [2-CNC6 H4, H], the IC50 in experiment [1] (setting [4]) is 6.15 nM; in experiment [3] (setting [5]), 12.3 nM. In experiment [2], the “β2/β1 (ratio of the ED50 values, tracheal ring to right atrium; index of cardioselectivity)” value is reported as 2.
Take `Cc1cc(OCC(O)CN2CCCC(Cn3c(=O)[nH]c4ccccc43)C2)cc(C)c1Cl` (stereo not drawn) [3,5-(CH3)2-4-ClC6 H2, H]: the IC50 in experiment [1] (setting [4]) was 5.63 nM; in experiment [3] (setting [5]), 2820 nM. Also, the “β2/β1 (ratio of the ED50 values, tracheal ring to right atrium; index of cardioselectivity)” value in experiment [2] amounted to 500.
For `Cc1cccc(OCC(O)CN2CCCC(Cn3c(=O)[nH]c4ccccc43)C2)c1` (stereo not drawn) [3-(CH3)C6 H4, H] the same measures were 6.32 nM, 50.6 nM and 8.
The corresponding values for `CC(=O)c1ccc(OCC(O)CN2CCCC(Cn3c(=O)[nH]c4ccccc43)C2)cc1` (stereo not drawn) [4-(CH3 CO)C6 H4, H] are 5.9 nM, 47.2 nM and 8.
For `CC(=O)Nc1ccc(OCC(O)CN2CCCC(Cn3c(=O)[nH]c4ccccc43)C2)cc1` (stereo not drawn) [4-(CH3 CONH)C6 H4, H] the same measures were 5.7 nM, 410 nM and 72.
With `COc1ccc(OCC(O)CN2CCCC(Cn3c(=O)[nH]c4ccccc43)C2)cc1` (stereo not drawn) [4-(CH3 O)C6 H4, H], the figures for the IC50 in experiment [1] (setting [4]) and in experiment [3] (setting [5]) were 24.3 nM and 48.6 nM, respectively. Besides, the “β2/β1 (ratio of the ED50 values, tracheal ring to right atrium; index of cardioselectivity)” value in experiment [2] is recorded as 2.
For `CSc1ccc(OCC(O)CN2CCCC(Cn3c(=O)[nH]c4ccccc43)C2)cc1` (stereo not drawn) [4-(CH3 S)C6 H4, H] the same measures were 1.47 nM, 46.8 nM and 32.
For `CCCc1ccc(OCC(O)CN2CCCC(Cn3c(=O)[nH]c4cc(F)ccc43)C2)cc1` (stereo not drawn) [4-(nC3 H7)C6 H4,5-F] the same measures were 22.6 nM, 1430 nM and 63.
The corresponding values for `CCCCNC(=O)Nc1ccc(OCC(O)CN2CCCC(Cn3c(=O)[nH]c4ccccc43)C2)cc1` (stereo not drawn) [4-(nC4 H9NHCONH)C6 H4, H] are 20.2 nM, 161 nM and 8.
`O=c1[nH]c2ccccc2n1CC1CCCN(CC(O)COc2ccc(Br)cc2)C1` (stereo not drawn) [4-BrC6 H4, H]: the IC50 is 10.9 nM in experiment [1] (setting [4]) and 2720 nM in experiment [3] (setting [5]). The “β2/β1 (ratio of the ED50 values, tracheal ring to right atrium; index of cardioselectivity)” value in experiment [2] was 250.
With `O=c1[nH]c2ccccc2n1CC1CCCN(CC(O)COc2ccc(Cl)cc2)C1` (stereo not drawn) [4-ClC6 H4, H], the IC50 was 48.1 nM in experiment [1] (setting [4]) and 769 nM in experiment [3] (setting [5]). Besides, the “β2/β1 (ratio of the ED50 values, tracheal ring to right atrium; index of cardioselectivity)” value in experiment [2] is reported as 16.
